{"source": "patent US20160158317A1", "about": "“Antimicrobial Peptide Variants and Polynucleotides Encoding Same” (Adenium Biotech A/S, priority 2010, published 2016)", "note": "Where a SMILES comes first, the peptide text is derived from it. Bridges are numbered along the chain shown (N, C = ends).", "data": [{"experiment": "Determination of the protein binding (90% serum, 30 kDa filter, HPLC)", "format": "in vitro ADME", "conditions": "serum", "method": "Protein binding assays were performed as follows. The purified peptides were mixed with 90% serum and centrifuged through a 30 kDa filter. The ultra-filtrate and the non filtrated serum samples were quantified by HPLC measurements and the protein binding was subsequently calculated.", "values": [{"molecule": "CC(C)[C@@H]1NC(=O)[C@@H]2CSSC[C@H](NC(=O)[C@H](C(C)C)NC(=O)[C@H](CCCNC(=N)N)NC(=O)[C@H](CCCCN)NC(=O)CNC(=O)[C@H](CC(N)=O)NC(=O)[C@H](CCCNC(=N)N)NC(=O)[C@H](Cc3ccc(O)cc3)NC1=O)C(=O)N[C@@H](Cc1ccc(O)cc1)C(=O)N[C@@H](CCCNC(=N)N)C(=O)N[C@@H](CCCNC(=N)N)C(=O)N[C@H](C(=O)N[C@@H](CC(N)=O)C(=O)O)CSSC[C@H](NC(=O)[C@H](Cc1ccccc1)NC(=O)CN)C(=O)N[C@@H](Cc1c[nH]c3ccccc13)C(=O)N[C@@H](Cc1ccc(O)cc1)C(=O)N[C@@H](C)C(=O)N2", "note": "[compound 80] (H-GFCWYACVYRNGKRVCYRRCN-OH; disulfide 3-20, 7-16 (inferred); N-terminus and C-terminus assumed)", "fraction unbound": 0.04}, {"molecule": "CC(C)[C@@H]1NC(=O)CNC(=O)[C@H](CC(N)=O)NC(=O)[C@H](CCCNC(=N)N)NC(=O)[C@H](CCCCN)NC(=O)[C@H](C(C)C)NC(=O)[C@@H]2CSSC[C@H](NC(=O)[C@H](CO)NC(=O)[C@H](CCCNC(=N)N)NC1=O)C(=O)N[C@@H](Cc1ccc(O)cc1)C(=O)N[C@@H](CCCNC(=N)N)C(=O)N[C@@H](CCCNC(=N)N)C(=O)N[C@H](C(=O)N[C@@H](CC(N)=O)C(=O)O)CSSC[C@H](NC(=O)[C@H](Cc1ccccc1)NC(=O)CN)C(=O)N[C@@H](Cc1c[nH]c3ccccc13)C(=O)N[C@@H](Cc1ccc(O)cc1)C(=O)N[C@@H](C(C)C)C(=O)N2", "note": "[compound 87] (H-GFCWYVCVKRNGVRSCYRRCN-OH; disulfide 3-20, 7-16 (inferred); N-terminus and C-terminus assumed)", "fraction unbound": 0.07}, {"molecule": "CC(C)[C@@H]1NC(=O)CNC(=O)[C@H](CC(N)=O)NC(=O)[C@H](CCCCN)NC(=O)[C@H](Cc2ccc(O)cc2)NC(=O)[C@H](C(C)C)NC(=O)[C@@H]2CSSC[C@H](NC(=O)[C@H](C(C)C)NC(=O)[C@H](CCCNC(=N)N)NC1=O)C(=O)N[C@@H](Cc1c[nH]cn1)C(=O)N[C@@H](CCCNC(=N)N)C(=O)N[C@@H](CCCNC(=N)N)C(=O)N[C@H](C(=O)N[C@@H](CC(N)=O)C(=O)O)CSSC[C@H](NC(=O)[C@H](Cc1ccccc1)NC(=O)CN)C(=O)N[C@@H](Cc1c[nH]c3ccccc13)C(=O)N[C@@H](Cc1ccc(O)cc1)C(=O)N[C@@H](C(C)C)C(=O)N2", "note": "[compound 89] (H-GFCWYVCVYKNGVRVCHRRCN-OH; disulfide 3-20, 7-16 (inferred); N-terminus and C-terminus assumed)", "fraction unbound": 0.1}, {"molecule": "CC(C)[C@@H]1NC(=O)CNC(=O)[C@H](CC(N)=O)NC(=O)[C@H](CCCNC(=N)N)NC(=O)[C@H](Cc2ccc(O)cc2)NC(=O)[C@H](C(C)C)NC(=O)[C@@H]2CSSC[C@H](NC(=O)[C@H](C(C)C)NC(=O)[C@H](CCCNC(=N)N)NC1=O)C(=O)N[C@@H](Cc1c[nH]cn1)C(=O)N[C@@H](CCCNC(=N)N)C(=O)N[C@@H](CCCNC(=N)N)C(=O)N[C@H](C(=O)N[C@@H](CC(N)=O)C(=O)O)CSSC[C@H](NC(=O)[C@H](Cc1ccccc1)NC(=O)[C@@H](N)Cc1c[nH]cn1)C(=O)N[C@@H](Cc1c[nH]c3ccccc13)C(=O)N[C@@H](CC(N)=O)C(=O)N[C@@H](C(C)C)C(=O)N2", "note": "[compound 98] (H-HFCWNVCVYRNGVRVCHRRCN-OH; disulfide 3-20, 7-16 (inferred); N-terminus and C-terminus assumed)", "fraction unbound": 0.23}, {"molecule": "CC(C)[C@@H]1NC(=O)CNC(=O)[C@H](CC(N)=O)NC(=O)[C@H](CCCNC(=N)N)NC(=O)[C@H](Cc2ccc(O)cc2)NC(=O)[C@H](C(C)C)NC(=O)[C@@H]2CSSC[C@H](NC(=O)[C@H](C(C)C)NC(=O)[C@H](CCCNC(=N)N)NC1=O)C(=O)N[C@@H](Cc1c[nH]cn1)C(=O)N[C@@H](CCCNC(=N)N)C(=O)N[C@@H](CCCNC(=N)N)C(=O)N[C@H](C(=O)N[C@@H](CC(N)=O)C(=O)O)CSSC[C@H](NC(=O)[C@H](Cc1ccccc1)NC(=O)[C@@H](N)CCCCN)C(=O)N[C@@H](Cc1c[nH]c3ccccc13)C(=O)N[C@@H](CC(N)=O)C(=O)N[C@@H](C(C)C)C(=O)N2", "note": "[compound 100] (H-KFCWNVCVYRNGVRVCHRRCN-OH; disulfide 3-20, 7-16 (inferred); N-terminus and C-terminus assumed)", "fraction unbound": 0.22}, {"molecule": "CSCC[C@H](N)C(=O)N[C@@H](Cc1ccccc1)C(=O)N[C@H]1CSSC[C@@H](C(=O)N[C@@H](CC(N)=O)C(=O)O)NC(=O)[C@H](CCCNC(=N)N)NC(=O)[C@H](CCCNC(=N)N)NC(=O)[C@H](Cc2c[nH]cn2)NC(=O)[C@@H]2CSSC[C@H](NC(=O)[C@H](C(C)C)NC(=O)[C@H](CC(N)=O)NC(=O)[C@H](Cc3c[nH]c4ccccc34)NC1=O)C(=O)N[C@@H](C(C)C)C(=O)N[C@@H](Cc1ccc(O)cc1)C(=O)N[C@@H](CCCNC(=N)N)C(=O)N[C@@H](CC(N)=O)C(=O)NCC(=O)N[C@@H](C(C)C)C(=O)N[C@@H](CCCNC(=N)N)C(=O)N[C@@H](C(C)C)C(=O)N2", "note": "[compound 101] (H-MFCWNVCVYRNGVRVCHRRCN-OH; disulfide 3-20, 7-16 (inferred); N-terminus and C-terminus assumed)", "fraction unbound": 0.19}, {"molecule": "CC(C)[C@@H]1NC(=O)CNC(=O)[C@H](CC(N)=O)NC(=O)[C@H](CCCNC(=N)N)NC(=O)[C@H](Cc2ccc(O)cc2)NC(=O)[C@H](C(C)C)NC(=O)[C@@H]2CSSC[C@H](NC(=O)[C@H](CO)NC(=O)[C@H](CCCNC(=N)N)NC1=O)C(=O)N[C@@H](Cc1ccc(O)cc1)C(=O)N[C@@H](CCCNC(=N)N)C(=O)N[C@@H](CCCNC(=N)N)C(=O)N[C@H](C(=O)N[C@@H](CC(N)=O)C(=O)O)CSSC[C@H](NC(=O)[C@H](Cc1ccccc1)NC(=O)CN)C(=O)N[C@@H](C)C(=O)N[C@@H](CCCCN)C(=O)N[C@@H](C(C)C)C(=O)N2", "note": "[compound 120] (H-GFCAKVCVYRNGVRSCYRRCN-OH; disulfide 3-20, 7-16 (inferred); N-terminus and C-terminus assumed)", "fraction unbound": 0.31}, {"molecule": "CC(C)[C@@H]1NC(=O)CNC(=O)[C@H](CC(N)=O)NC(=O)[C@H](CCCNC(=N)N)NC(=O)[C@H](Cc2ccc(O)cc2)NC(=O)[C@H](C(C)C)NC(=O)[C@@H]2CSSC[C@H](NC(=O)[C@H](CO)NC(=O)[C@H](CCCNC(=N)N)NC1=O)C(=O)N[C@@H](Cc1ccc(O)cc1)C(=O)N[C@@H](CCCNC(=N)N)C(=O)N[C@@H](CCCNC(=N)N)C(=O)N[C@H](C(=O)N[C@@H](CC(N)=O)C(=O)O)CSSC[C@H](NC(=O)[C@H](Cc1ccccc1)NC(=O)CN)C(=O)N[C@@H](C)C(=O)N[C@@H](CCCNC(=N)N)C(=O)N[C@@H](C(C)C)C(=O)N2", "note": "[compound 122] (H-GFCARVCVYRNGVRSCYRRCN-OH; disulfide 3-20, 7-16)", "fraction unbound": 0.19}, {"molecule": "CC(C)[C@@H]1NC(=O)CNC(=O)[C@H](CC(N)=O)NC(=O)[C@H](CCCNC(=N)N)NC(=O)[C@H](CCCCN)NC(=O)[C@H](C(C)C)NC(=O)[C@@H]2CSSC[C@H](NC(=O)[C@H](C(C)C)NC(=O)[C@H](CCCNC(=N)N)NC1=O)C(=O)N[C@@H](Cc1ccc(O)cc1)C(=O)N[C@@H](CCCNC(=N)N)C(=O)N[C@@H](CCCNC(=N)N)C(=O)N[C@H](C(=O)N[C@@H](CC(N)=O)C(=O)O)CSSC[C@H](NC(=O)[C@H](Cc1ccccc1)NC(=O)CN)C(=O)N[C@@H](C)C(=O)N[C@@H](CCCNC(=N)N)C(=O)N[C@@H](C(C)C)C(=O)N2", "note": "[compound 125] (H-GFCARVCVKRNGVRVCYRRCN-OH; disulfide 3-20, 7-16 (inferred); N-terminus and C-terminus assumed)", "fraction unbound": 0.1}]}]}
